Measured values taken from patent US20090233845A1, “Methods and compositions for non-covalently enhanced receptor binding” (priority 2008, published 2009).

System: NIH/3T3 cells
Experiment: Mitogenic assay on FGF-2-responsive cells (heparin control test, CellTiter AQueous One, OD 490 nm)
Format: cell-based
Experimental: We developed a mitogenic assay on cells responsive to FGF-2. The assay is run in the presence of a submaximal concentration of FGF-2 (10 ng/mL). […] At 72 h of incubation in the presence of 10 ng/mL of FGF-2, the addition of 10 μg/mL of heparin increased mitogenic activity by 58%.
Organic compounds of the invention may be assayed for their effect on FGF-2 stimulation of growth using this assay. […] For example, a “hit” can be defined as an increase in activity of >50%, in the presence of 10 ng/mL FGF-2 (with no added heparin).
The details of the assay are as follows.
1. Trypsinize cells. Remove a small aliquot of cell suspension for cell count and viability.
4. Transfer 80 μL of cell suspension to the appropriate wells of three 96-well tissue culture-treated plates.
5. Incubate plates at 37° C./5% CO2 for 18 hr.
Add 80 μL/well DMEM/0.1% BCS/1% Pen-Strep (0.1% BCS media), and incubate cells for 24 hr at 37° C./5% CO2.
A mass of 20 mg of heparin was dissolved in 2.0 mL of 0.1% BCS media for a final concentration of 10 mg/mL.
Preparation of 10× Heparin Solution: The 10 mg/mL heparin solution was diluted to 100 μg/mL by adding 50 μL of the 10 mg/mL solution to 4,950 μL of 0.1% BCS media.
A 1:10 intermediate dilution was prepared by adding 10 μL of 100 μg/mL FGF-2 stock to 90 μL of 1×PBS/0.5% BSA, for a final concentration of 10 μg/mL.
Preparation of 10×FGF-2: The 1:10 intermediate was further diluted by adding 50 μL to 4,950 μL of 0.1% BCS media, for a final concentration of 100 ng/mL. The 100 ng/mL FGF-2 solution was diluted by adding 500 μL to 4,500 μL of 0.1% BCS media, for a final concentration of 10 ng/mL.
6. 5× Heparin/FGF-2 Dilutions: Mix equal volumes of 10×FGF-2 (Steps 3 and 4) and 10× heparin stocks (Step 5) to create the 5× Treatment Intermediates as shown in Tables 3 and 4.
Add 20 μL of CellTiter AQueous One Solution to each of the treated wells.
Incubate for 1 hr at 37° C./5% CO2.

[1] = heparin 0.001 μg/mL, 1 ng/mL FGF-2, 24 hr
[2] = heparin 0.001 μg/mL, 1 ng/mL FGF-2, 48 hr
[3] = heparin 0.001 μg/mL, 1 ng/mL FGF-2, 72 hr
[4] = heparin 0.001 μg/mL, 10 ng/mL FGF-2, 24 hr
[5] = heparin 0.001 μg/mL, 10 ng/mL FGF-2, 48 hr
[6] = heparin 0.001 μg/mL, 10 ng/mL FGF-2, 72 hr
[7] = heparin 0.01 μg/mL, 1 ng/mL FGF-2, 24 hr
[8] = heparin 0.01 μg/mL, 1 ng/mL FGF-2, 48 hr
[9] = heparin 0.01 μg/mL, 1 ng/mL FGF-2, 72 hr
[10] = heparin 0.01 μg/mL, 10 ng/mL FGF-2, 24 hr
[11] = heparin 0.01 μg/mL, 10 ng/mL FGF-2, 48 hr
[12] = heparin 0.01 μg/mL, 10 ng/mL FGF-2, 72 hr
[13] = heparin 0.1 μg/mL, 1 ng/mL FGF-2, 24 hr
[14] = heparin 0.1 μg/mL, 1 ng/mL FGF-2, 48 hr
[15] = heparin 0.1 μg/mL, 1 ng/mL FGF-2, 72 hr
[16] = heparin 0.1 μg/mL, 10 ng/mL FGF-2, 24 hr
[17] = heparin 0.1 μg/mL, 10 ng/mL FGF-2, 48 hr
[18] = heparin 0.1 μg/mL, 10 ng/mL FGF-2, 72 hr
[19] = heparin 1 μg/mL, 1 ng/mL FGF-2, 24 hr
[20] = heparin 1 μg/mL, 1 ng/mL FGF-2, 48 hr
[21] = heparin 1 μg/mL, 1 ng/mL FGF-2, 72 hr
[22] = heparin 1 μg/mL, 10 ng/mL FGF-2, 24 hr
[23] = heparin 1 μg/mL, 10 ng/mL FGF-2, 48 hr
[24] = heparin 1 μg/mL, 10 ng/mL FGF-2, 72 hr
[25] = heparin 10 μg/mL, 1 ng/mL FGF-2, 24 hr
[26] = heparin 10 μg/mL, 1 ng/mL FGF-2, 48 hr
[27] = heparin 10 μg/mL, 1 ng/mL FGF-2, 72 hr
[28] = heparin 10 μg/mL, 10 ng/mL FGF-2, 24 hr
[29] = heparin 10 μg/mL, 10 ng/mL FGF-2, 48 hr
[30] = heparin 10 μg/mL, 10 ng/mL FGF-2, 72 hr

For “FGF-2: basic fibroblast growth factor (bFGF, FGF-2), receptor-binding ligand”, the “Mean OD490” value (1 ng/mL FGF-2, 0 μg/mL heparin, 24 hr) was 0.465, the “Mean OD490” value (1 ng/mL FGF-2, 0 μg/mL heparin, 48 hr) was 0.197 and the “Mean OD490” value (1 ng/mL FGF-2, 0 μg/mL heparin, 72 hr) was 0.199. For the same substance, the “Mean OD490” value (10 ng/mL FGF-2, 0 μg/mL heparin, 24 hr) was 0.898, the “Mean OD490” value (10 ng/mL FGF-2, 0 μg/mL heparin, 48 hr) was 0.661 and the “Mean OD490” value (10 ng/mL FGF-2, 0 μg/mL heparin, 72 hr) was 0.381. The “Mean OD490” value (assay control, 10 ng/mL FGF-2, 24 hr) was 0.884, the “Mean OD490” value (assay control, 10 ng/mL FGF-2, 48 hr) was 0.737 and the “Mean OD490” value (assay control, 10 ng/mL FGF-2, 72 hr) was 0.401.

Heparin was tested, and the “Mean OD490” value [1] was 0.477, the “Percent Difference from 0 μg/mL Heparin Mean OD490” value [1] was 2.6% and the “Mean OD490” value [2] was 0.222. For the same substance, the “Percent Difference from 0 μg/mL Heparin Mean OD490” value [2] was 12.7%, the “Mean OD490” value [3] was 0.208 and the “Percent Difference from 0 μg/mL Heparin Mean OD490” value [3] was 4.5%. The “Mean OD490” value [4] was 0.912, the “Percent Difference from 0 μg/mL Heparin OD490” value [4] was 1.6% and the “Mean OD490” value [5] was 0.641. For the same substance, the “Percent Difference from 0 μg/mL Heparin OD490” value [5] was −3.0%, the “Mean OD490” value [6] was 0.416 and the “Percent Difference from 0 μg/mL Heparin OD490” value [6] was 9.2%. The “Mean OD490” value [7] was 0.430, the “Percent Difference from 0 μg/mL Heparin Mean OD490” value [7] was −7.5% and the “Mean OD490” value [8] was 0.200. For the same substance, the “Percent Difference from 0 μg/mL Heparin Mean OD490” value [8] was 1.5%, the “Mean OD490” value [9] was 0.199 and the “Percent Difference from 0 μg/mL Heparin Mean OD490” value [9] was 0.0%. For the same substance, the “Mean OD490” value [10] was 0.859, the “Percent Difference from 0 μg/mL Heparin OD490” value [10] was −4.3% and the “Mean OD490” value [11] was 0.641. For the same substance, the “Percent Difference from 0 μg/mL Heparin OD490” value [11] was −3.0%, the “Mean OD490” value [12] was 0.417 and the “Percent Difference from 0 μg/mL Heparin OD490” value [12] was 9.4%. The “Mean OD490” value [13] was 0.419, the “Percent Difference from 0 μg/mL Heparin Mean OD490” value [13] was −9.9% and the “Mean OD490” value [14] was 0.226. The “Percent Difference from 0 μg/mL Heparin Mean OD490” value [14] was 14.7%, the “Mean OD490” value [15] was 0.199 and the “Percent Difference from 0 μg/mL Heparin Mean OD490” value [15] was 0.0%. For the same substance, the “Mean OD490” value [16] was 0.863, the “Percent Difference from 0 μg/mL Heparin OD490” value [16] was −3.9% and the “Mean OD490” value [17] was 0.830. The “Percent Difference from 0 μg/mL Heparin OD490” value [17] was 25.6%, the “Mean OD490” value [18] was 0.459 and the “Percent Difference from 0 μg/mL Heparin OD490” value [18] was 20.5%. The “Mean OD490” value [19] was 0.398, the “Percent Difference from 0 μg/mL Heparin Mean OD490” value [19] was −14.4% and the “Mean OD490” value [20] was 0.202. For the same substance, the “Percent Difference from 0 μg/mL Heparin Mean OD490” value [20] was 2.5%, the “Mean OD490” value [21] was 0.212 and the “Percent Difference from 0 μg/mL Heparin Mean OD490” value [21] was 6.5%. For the same substance, the “Mean OD490” value [22] was 0.938, the “Percent Difference from 0 μg/mL Heparin OD490” value [22] was 4.5% and the “Mean OD490” value [23] was 0.978. The “Percent Difference from 0 μg/mL Heparin OD490” value [23] was 48.0%, the “Mean OD490” value [24] was 0.583 and the “Percent Difference from 0 μg/mL Heparin OD490” value [24] was 53.0%. The “Mean OD490” value [25] was 0.433, the “Percent Difference from 0 μg/mL Heparin Mean OD490” value [25] was −6.9% and the “Mean OD490” value [26] was 0.196. For the same substance, the “Percent Difference from 0 μg/mL Heparin Mean OD490” value [26] was −0.5%, the “Mean OD490” value [27] was 0.188 and the “Percent Difference from 0 μg/mL Heparin Mean OD490” value [27] was −5.5%. For the same substance, the “Mean OD490” value [28] was 1.071, the “Percent Difference from 0 μg/mL Heparin OD490” value [28] was 19.3% and the “Mean OD490” value [29] was 0.992. The “Percent Difference from 0 μg/mL Heparin OD490” value [29] was 50.1%, the “Mean OD490” value [30] was 0.602 and the “Percent Difference from 0 μg/mL Heparin OD490 (increase in mitogenic activity)” value [30] was 58.0%. For the same substance, the “Percent Difference from 0 μg/mL Heparin OD490 (increase in mitogenic activity)” value (heparin 10 μg/mL, 10 ng/mL FGF-2, 72 hr, listed as heparin) was 58% and the “FGF-2 activity in the presence of heparin” value (increasing concentrations of heparin, FIG. 18) was “increased with increasing concentrations of heparin”.
